Values after ≈ are worked out from the molar mass of the structure shown. Peptide text beside a SMILES is read from it. * marks the point of attachment. Octanoyl = CCCCCCCC(=O)*
Legend:
[1] = tested on: Staphylococcus aureus; assay: Antibacterial activity against Staphylococcus aureus DSM 20231 assessed as growth inhibition after 18 hrs; format: functional; settings: DSM 20231, 18 h
[2] = tested on: Pseudomonas aeruginosa; assay: Antibacterial activity against Pseudomonas aeruginosa DSM 50071 assessed as growth inhibition after 18 hrs; format: functional; settings: DSM 50071, 18 h
[3] = tested on: MCF7; assay: Selectivity index, ratio of IC50 for human GM5657 cells to IC50 for human MCF7 cells; format: functional
[4] = Selectivity index, ratio of IC50 for human GM5657 cells to IC50 for human HT29 cells; format: functional
[5] = tested on: Bacillus subtilis; assay: Antibacterial activity against Bacillus subtilis 168 DSM 402 assessed as growth inhibition after 18 hrs; format: functional; settings: subsp. subtilis str. 168 DSM 402, 18 h
[6] = Hemolytic activity against human RBC assessed as hemoglobin leakage at 250 ug/ml; format: ADME, cell-based, Erythrocyte; settings: human red blood cells, read-out: Activity
[7] = Hemolytic activity against human RBC assessed as hemoglobin leakage; format: ADME, cell-based, Erythrocyte; settings: human red blood cells
[8] = tested on: Staphylococcus aureus; assay: Antibacterial activity against Staphylococcus aureus ATCC 43300 assessed as growth inhibition after 18 hrs; format: functional; settings: ATCC 43300, 18 h
[9] = tested on: MCF7; assay: Cytotoxicity against human MCF7 cells assessed as inhibition of cell viability after 48 hrs by crystal violet assay; format: functional, cell-based; settings: MCF7, 48 h
[10] = Cytotoxicity against human GM5657 cells assessed as inhibition of cell viability after 48 hrs by crystal violet assay; format: cell-based; settings: GM5657, 48 h
[11] = Hemolytic activity against human RBC assessed as hemoglobin leakage at 500 ug/ml after 5 mins; format: ADME, cell-based, Erythrocyte; settings: human red blood cells, read-out: Activity
[12] = tested on: Acinetobacter baumannii; assay: Antibacterial activity against Acinetobacter baumannii DSM 30007 assessed as growth inhibition after 18 hrs; format: functional; settings: DSM 30007, 18 h
[13] = Ratio of IC50 for human GM5657 cells to MIC for Staphylococcus aureus DSM 20231; format: functional
[14] = tested on: HT-29; assay: Cytotoxicity against human HT-29 cells assessed as inhibition of cell viability after 48 hrs by crystal violet assay; format: functional, cell-based; settings: HT-29, 48 h
[15] = tested on: Bacillus subtilis; assay: Bactericidal activity against Bacillus subtilis 168 (trpC2)2 assessed as survival rate at twice MIC concentration incubated for 15 mins measured after 18 hrs; format: functional, subsp. subtilis str. 168 (trpC2)2
[16] = tested on: Escherichia coli; assay: Antibacterial activity against Escherichia coli DSM 30083 assessed as growth inhibition after 18 hrs; format: functional; settings: DSM 30083, 18 h

| Compound | MIC [1] | MIC [2] | Ratio IC50 [3] | Ratio IC50 [4] | MIC [5] | hemolysis at 250 ug/ml [6] | HC50 [7] | MIC [8] | IC50 [9] | IC50 [10] | hemolysis at 5 min, 500 ug/ml [11] | MIC [12] | Ratio IC50 [13] | IC50 [14] | Survival [15] | MIC [16] |
| --- | --- | --- | --- | --- | --- | --- | --- | --- | --- | --- | --- | --- | --- | --- | --- | --- |
| CCCCCCCC(=O)NCCCC[C@H](N)C(=O)N[C@@H](CCCNC(=N)N)C(=O)N[C@@H](Cc1c[nH]c2ccccc12)C(=O)N[C@@H](CCCNC(=N)N)C(=O)N[C@@H](Cc1c[nH]c2ccccc12)C(=O)N[C@@H](CCCNC(=N)N)C(=O)N[C@@H](Cc1c[nH]c2ccccc12)C(N)=O (H-K(Octanoyl)RWRWRW-NH2) | 2 µM (≈ 2.6 µg/mL) | 9 µM (≈ 11.7 µg/mL) | 7 | 7 | 0.6 µM (≈ 0.779 µg/mL) | > 50% | 114 µM | 1 µM (≈ 1.3 µg/mL) | 4.6 µM | 32.5 µM | 88% | 9 µM (≈ 11.7 µg/mL) | 15 | 4.3 µM | 0.006% | 5 µM (≈ 6.49 µg/mL) |
| CCCCCCCC(=O)NCCCC[C@H](NC(=O)[C@H](Cc1c[nH]c2ccccc12)NC(=O)[C@H](CCCNC(=N)N)NC(=O)[C@H](Cc1c[nH]c2ccccc12)NC(=O)[C@H](CCCNC(=N)N)NC(=O)[C@H](Cc1c[nH]c2ccccc12)NC(=O)[C@@H](N)CCCNC(=N)N)C(N)=O (H-RWRWRWK(Octanoyl)-NH2) | 2 µM (≈ 2.6 µg/mL) | 18 µM (≈ 23.4 µg/mL) | 7 | 7 | 0.6 µM (≈ 0.779 µg/mL) | 10% | 285 µM | 2 µM (≈ 2.6 µg/mL) | 4.7 µM | 31.3 µM | 48% | 5 µM (≈ 6.49 µg/mL) | 15 | 4.5 µM | 0.261% | 2 µM (≈ 2.6 µg/mL) |

Source: ChEMBL document CHEMBL2203177, “Tuning the activity of a short arg-trp antimicrobial Peptide by lipidation of a C- or N-terminal lysine side-chain” (ACS Med Chem Lett, 2012)
